Experimental data taken from patent US11932630B2, “Heteroaryl aminopropanol derivatives” (NOVARTIS AG, priority 2021, dated 2024).

What was measured:
[1] = molecular target: T1, human LTA4H (Homo sapiens, UniProt P09960); experiment: Human LTA4H enzyme assay (Arg-AMC substrate); format: biochemical; settings: Arg-AMC 600 μM, 9 nM human LTA4H, 15 min pre-incubation; mean values of at least 3 measurements; read-out: ArgAMC IC50
T1 sequence (P09960 1-611): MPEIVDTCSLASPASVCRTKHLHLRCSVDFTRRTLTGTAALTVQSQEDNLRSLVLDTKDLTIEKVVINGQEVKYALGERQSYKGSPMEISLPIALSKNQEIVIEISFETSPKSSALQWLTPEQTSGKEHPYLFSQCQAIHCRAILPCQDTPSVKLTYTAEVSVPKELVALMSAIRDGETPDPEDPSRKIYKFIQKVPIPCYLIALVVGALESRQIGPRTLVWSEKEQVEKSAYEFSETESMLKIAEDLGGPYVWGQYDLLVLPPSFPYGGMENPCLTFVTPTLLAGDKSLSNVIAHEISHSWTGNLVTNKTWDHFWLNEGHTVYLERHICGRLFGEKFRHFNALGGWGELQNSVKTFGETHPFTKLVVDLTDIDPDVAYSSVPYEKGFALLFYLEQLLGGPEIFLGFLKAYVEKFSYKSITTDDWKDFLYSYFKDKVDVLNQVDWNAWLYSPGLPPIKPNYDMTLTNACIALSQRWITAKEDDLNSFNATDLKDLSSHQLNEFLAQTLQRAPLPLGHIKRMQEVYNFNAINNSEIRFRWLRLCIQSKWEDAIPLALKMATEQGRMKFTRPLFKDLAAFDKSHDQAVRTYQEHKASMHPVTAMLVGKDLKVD
Experimental: a) Human LTA4H Enzyme Assay:
[…] (LTA4H) catalyzes the vinylogous hydrolysis of the epoxide, leukotriene A4 (LTA4) into the pro-inflammatory mediator LTB4.
For compound testing, compounds are delivered as 10 mM stock solutions in 90% DMSO (10% water) in matrix tubes. […] A final substrate concentration of 600 μM, which is around the KM value of Arg-AMC, at a final enzyme concentration of 9 nM is chosen. Upon addition of the substrate, the plate is immediately placed in a fluorescence reader and the fluorescence is measured every 10 minutes for 60 minutes using the filter setting λ excitation=380 nm and A emission=460 nm. […] Raw data is converted to rate (moles per minute) using the AMC calibration curve calculated from the AMC standards. The data is analyzed in GraphPad Prism (GraphPad software Inc.) using non-linear regression to determine IC50 values of LTA4H inhibitors.

[2] = test system: LTB4 biosynthesis in human whole blood; experiment: Human whole blood assay (hWB), inhibition of LTB4 biosynthesis; format: cell-based; settings: human blood diluted 1:3, 4 hours with compound, 10 μg/ml A23187 for 15 min, eicosanoid by ELISA; read-out: hWB IC50
Experimental: b) Human Whole Blood Assay:
Compounds are tested in a human whole blood assay (hWB) to test their ability to inhibit LTB4 biosynthesis in a human cellular system. To this end, fresh blood is collected in heparinized vacutainers by venipuncture from volunteers. Blood is diluted 1:3 with RPM (Roswell Park Memorial Institute) medium and aliquots of 200 μL are transferred to 96-well round bottom cell culture plates. For compound testing, compounds are delivered as 10 mM stock solutions in 90% DMSO in matrix tubes. […] 4 μL of compound dilution or vehicle is added to 200 μL of blood and incubated for 4 hours at 37° C. in a humidified incubator. […] Incubation is terminated by centrifugation at 300 g for 10 min at 22° C. Plasma supernatant is taken and transferred to a 96 well plate for eicosanoid determination by ELISA (Assay designs) according to the manufacturer's protocol after 1:20 dilution in assay buffer. The data is analyzed in GraphPad Prism (GraphPad software Inc.) using non-linear regression to determine IC50 values of LTA4H inhibitors.

| SMILES | IC50 [1] | IC50 [2] |
| --- | --- | --- |
| N[C@H](CO)Cc1nnn(-c2ccc(Oc3ncc(-c4ccn[nH]4)cc3F)cc2)n1 [Example 40, (S)-2-amino-(2-(4-((3-fluoro-5-(1H-pyrazol-5-yl)pyridin-2-yl)oxy)phenyl)-2H-tetrazol-5-yl)propan-1-ol] | 2.6 nM | 62 nM |
| N[C@@H](CO)Cn1nnc(-c2ccc(Oc3ncc(Cl)cc3F)cc2)n1 [Example 30, (R)-2-Amino-3-(5-(4-((5-chloro-3-fluoropyridin-2-yl)oxy)phenyl)-2H-tetrazol-2-yl)propan-1-ol] |  | 69 nM |
| N[C@H](CO)Cn1ccc(-c2ccc(Oc3ncc(-c4cc[nH]n4)cc3F)cc2)n1 [Example 37, (S)-2-amino-3-(3-(4-((3-fluoro-5-(1H-pyrazol-5-yl)pyridin-2-yl)oxy)phenyl)-1H-pyrazol-1-yl)propan-1-ol] | 2.6 nM | 47 nM |
| N[C@H](CO)Cc1nc(-c2cccc(Oc3ccc(OC(F)F)cn3)c2)no1 [Example 03, (S)-2-amino-3-(3-(3-((5-(difluoromethoxy)pyridin-2-yl)oxy)phenyl)-1,2,4-oxadiazol-5-yl)propan-1-ol] |  | 100 nM |
| N[C@@H](CO)Cn1nnc(-c2ccc(Oc3ccc(Cl)cn3)cc2)n1 [Example 31, (R)-2-Amino-3-(5-(4-((5-chloropyridin-2-yl)oxy)phenyl)-2H-tetrazol-2-yl)propan-1-ol] | 4.5 nM | 179 nM |
| C[C@H](Cc1ccccc1)Oc1ccc(-c2noc(C[C@H](N)CO)n2)cc1 [Example 17, (S)-2-amino-3-(3-(4-(((R)-1-phenylpropan-2-yl)oxy)phenyl)-1,2,4-oxadiazol-5-yl)propan-1-ol] | 16.7 nM | 297 nM |
| N[C@H](CO)Cn1ccc(-c2cccc(Oc3ncc(Cl)cc3F)c2)n1 [Example 24, (S)-2-amino-3-(3-(3-((5-chloro-3-fluoropyridin-2-yl)oxy)phenyl)-1H-pyrazol-1-yl)propan-1-ol] |  | 379 nM |
| N[C@H](CO)Cn1nnc(-c2ccc(Oc3ccc(Cl)cc3)nc2)n1 [Example 35, (S)-2-Amino-3-(5-(6-(4-chlorophenoxy)pyridin-3-yl)-2H-tetrazol-2-yl)propan-1-01] | 15.8 nM |  |
| N[C@H](CO)Cc1nc(-c2ccc(Oc3ccc(-c4ccn[nH]4)cn3)cc2)no1 [Example 13, (S)-3-(3-(4-((5-(1H-Pyrazol-5-yl)pyridin-2-yl)oxy)phenyl)-1,2,4-oxadiazol-5-yl)-2-aminopropan-1-ol] |  | 51 nM |
| N[C@H](CO)Cc1nc(-c2ccc(Oc3ncc(-c4ccn[nH]4)cc3F)cc2)no1 [Example 07] |  | 117 nM |
| N[C@H](CO)Cc1nc(-c2cccc([C@H]3COc4ccccc4O3)c2)no1 [Example 01, (S)-2-amino-3-(3-(3-((S)-2,3-dihydrobenzo[b][1,4]dioxin-2-yl)phenyl)-1,2,4-oxadiazol-5-yl)propan-1-ol] |  | 91 nM |
| N[C@H](CO)Cn1cc(-c2ccc(Oc3ncc(Cl)cc3F)cc2)cn1 [Example 25, (S)-2-amino-3-(4-(4-((5-chloro-3-fluoropyridin-2-yl)oxy)phenyl)-1H-pyrazol-1-yl)propan-1-ol] | 160 nM |  |
| N[C@H](CO)Cn1nnc(-c2ccc(Oc3ncc(-c4ncco4)cc3F)cc2)n1 [Example 38, (2S)-2-amino-3-[5-(4-[[3-fluoro-5-(1,3-oxazol-2-yl)pyridin-2-yl]oxy]phenyl)-2H-1,2,3,4-tetrazol-2-yl]propan-1-ol] | 7.4 nM |  |
| N[C@H](CO)Cn1nnc(-c2ccc(Oc3ncc(Cl)cc3F)cc2)n1 [Example 29, (S)-2-Amino-3-(5-(4-((5-chloro-3-fluoropyridin-2-yl)oxy)phenyl)-2H-tetrazol-2-yl)propan-1-ol] |  | 162 nM |
| N[C@H](CO)Cc1nc(-c2cccc([C@@H]3COc4cccnc4O3)c2)no1 [Example 11, (S)-2-amino-3-(3-(3-((R)-2,3-dihydro-[1,4]dioxino[2,3-b]pyridin-3-yl)phenyl)-1,2,4-oxadiazol-5-yl)propan-1-ol] |  | 44 nM |
